Source: PMC10478077 (Journal of medicinal chemistry, 2019)

Tests used:
[1] = target: Mtb fumarase (Mycobacterium tuberculosis, UniProt P9WN93); test: Biochemical assay of Mtb fumarase enzymatic activity; conditions: for Inhibition (%) at 50 μM: 50 μM ligand concentration
[2] = tested on: H37Rv Mycobacterium tuberculosis; test: Antimicrobial susceptibility testing; format: cell-based; conditions: for bactericidal activity: H37Rv Mtb
[3] = tested on: Mtb; conditions: cited from earlier work

Sequence of Mtb fumarase (P9WN93 whole entry): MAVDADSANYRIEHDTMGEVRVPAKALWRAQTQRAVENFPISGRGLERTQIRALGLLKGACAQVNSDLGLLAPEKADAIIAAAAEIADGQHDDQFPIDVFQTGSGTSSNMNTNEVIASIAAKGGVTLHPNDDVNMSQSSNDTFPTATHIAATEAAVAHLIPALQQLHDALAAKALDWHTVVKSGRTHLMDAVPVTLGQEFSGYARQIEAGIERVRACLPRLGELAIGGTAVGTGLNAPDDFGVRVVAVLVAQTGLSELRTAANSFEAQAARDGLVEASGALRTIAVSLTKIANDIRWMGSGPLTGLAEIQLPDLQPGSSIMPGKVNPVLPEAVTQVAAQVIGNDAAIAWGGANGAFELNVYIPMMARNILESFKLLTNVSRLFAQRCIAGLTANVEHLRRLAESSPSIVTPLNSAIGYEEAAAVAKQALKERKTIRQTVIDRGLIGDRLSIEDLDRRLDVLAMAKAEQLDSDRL

With `COc1ccc(S(=O)(=O)N2CCCCCC2)cc1NC(=O)Cc1ccncc1` [Compound 15i, N-(5-(Azepan-1-ylsulfonyl)-2-methoxyphenyl)-2-(pyridin-4-yl)acetamide] the “Inhibition (%) at 50 μM” value [1] was “eliminated inhibitory activity”.

For `COc1ccc(S(=O)(=O)N2CCCCCCC2)cc1NC(=O)Cc1n[nH]c(=O)c2ccccc12` [Compound 16b, N-(5-(Azocan-1-ylsulfonyl)-2-methoxyphenyl)-2-(4-oxo-3,4-dihydrophthalazin-1-yl)acetamide], the “H37Rv Mtb MIC” value ([2]; 7H9/DPPC medium) was “highly active” and the bactericidal activity [2] was “activity was observed”.

In the case of `COc1ccc(S(=O)(=O)N2CCCCCC2)cc1NC(=O)Cc1nnc(O)c2ccccc12` [Compound 1, N-(5-(Azepan-1-ylsulfonyl)-2-methoxyphenyl)-2-(4-oxo-3,4-dihydrophthalazin-1-yl)acetamide], the bactericidal activity [2] is given as “no bactericidal activity” and the bactericidal properties [3] is given as “did not exhibit bactericidal properties”.

For `COc1ccc(S(=O)(=O)N2CCCCCC2)cc1NC(=O)Cc1noc2ccccc12` [Compound 15e, N-(5-(Azepan-1-ylsulfonyl)-2-methoxyphenyl)-2-(benzo[d]isoxazol-3-yl)acetamide], the “Inhibition (%) at 50 μM” value [1] was “failed to provide inhibition”.

For `COc1ccc(S(=O)(=O)N2CCc3ccccc3CC2)cc1NC(=O)Cc1n[nH]c(=O)c2ccccc12` [Compound 16l, N-(2-Methoxy-5-((1,2,4,5-tetrahydro-3H-benzo[d]azepin-3-yl)sulfonyl)phenyl)-2-(4-oxo-3,4-dihydrophthalazin-1-yl)acetamide], the “IC50 fold lower than that of 1” value ([1]; relative to 1 (IC50 2.0 μM)) was 3 fold.

For `COc1ccc(S(=O)(=O)N2CCCCCC2)cc1NC(=O)Cc1coc2ccccc12` [Compound 15d, N-(5-(Azepan-1-ylsulfonyl)-2-methoxyphenyl)-2-(benzofuran-3-yl)acetamide], the “Inhibition (%) at 50 μM” value [1] was “failed to provide inhibition”.

In the case of `COc1ccc(S(=O)(=O)N2CCCCCC2)cc1NC(=O)Cn1cnc2ccccc21` [Compound 15f, N-(5-(Azepan-1-ylsulfonyl)-2-methoxyphenyl)-2-(1H-benzo[d]imidazol-1-yl)acetamide], the “Inhibition (%) at 50 μM” value [1] is reported as “failed to provide inhibition”.
